How the values were obtained:
[1] = system: BA/F3 cells expressing EML4-ALK fusion protein v1; test: Growth inhibitory activity against EML4-ALK fusion protein-dependent cells; type: cell-based, mouse; details: growth of EML4-ALK fusion protein v1-expressing BA/F3 cells, cultured 2 days
Method: EML4-ALK fusion protein v1-expressing BA/F3 cells can grow in the absence of IL-3. In other words, they are cells that EML4-ALK fusion protein v1-dependently grow.
In a 96-well plate (Iwaki), BA/F3 cells expressing EML4-ALK fusion protein v1 were seeded at 500 cells per well in RPMI1640 medium (Invitrogen) containing 10% fetal bovine serum, followed by addition of a test compound (final concentration: 10 μM to 0.1 nM). As a negative control, DMSO used as a solvent of the test compound was added. Then, the cells were cultured under 5% CO2 at 37° C. for 2 days. A cell counting reagent (AlmarBlue; Biosource) was added, and the cells were cultured for 150 minutes, followed by measurement of fluorescence intensity with a […] (Safire; Tecan) in accordance with instructions attached to the reagent.

[2] = molecular target: EML4-ALK fusion protein v1 (Homo sapiens (Human), UniProt Q9UM73); test: Inhibitory activity against the kinase activity of EML4-ALK fusion protein (HTRF KinEASE-TK); type: biochemical; details: ATP 100 μM, reaction 1 hour
EML4-ALK fusion protein v1, sequence (Q9UM73 other isoform, or with tags, fused parts or gaps): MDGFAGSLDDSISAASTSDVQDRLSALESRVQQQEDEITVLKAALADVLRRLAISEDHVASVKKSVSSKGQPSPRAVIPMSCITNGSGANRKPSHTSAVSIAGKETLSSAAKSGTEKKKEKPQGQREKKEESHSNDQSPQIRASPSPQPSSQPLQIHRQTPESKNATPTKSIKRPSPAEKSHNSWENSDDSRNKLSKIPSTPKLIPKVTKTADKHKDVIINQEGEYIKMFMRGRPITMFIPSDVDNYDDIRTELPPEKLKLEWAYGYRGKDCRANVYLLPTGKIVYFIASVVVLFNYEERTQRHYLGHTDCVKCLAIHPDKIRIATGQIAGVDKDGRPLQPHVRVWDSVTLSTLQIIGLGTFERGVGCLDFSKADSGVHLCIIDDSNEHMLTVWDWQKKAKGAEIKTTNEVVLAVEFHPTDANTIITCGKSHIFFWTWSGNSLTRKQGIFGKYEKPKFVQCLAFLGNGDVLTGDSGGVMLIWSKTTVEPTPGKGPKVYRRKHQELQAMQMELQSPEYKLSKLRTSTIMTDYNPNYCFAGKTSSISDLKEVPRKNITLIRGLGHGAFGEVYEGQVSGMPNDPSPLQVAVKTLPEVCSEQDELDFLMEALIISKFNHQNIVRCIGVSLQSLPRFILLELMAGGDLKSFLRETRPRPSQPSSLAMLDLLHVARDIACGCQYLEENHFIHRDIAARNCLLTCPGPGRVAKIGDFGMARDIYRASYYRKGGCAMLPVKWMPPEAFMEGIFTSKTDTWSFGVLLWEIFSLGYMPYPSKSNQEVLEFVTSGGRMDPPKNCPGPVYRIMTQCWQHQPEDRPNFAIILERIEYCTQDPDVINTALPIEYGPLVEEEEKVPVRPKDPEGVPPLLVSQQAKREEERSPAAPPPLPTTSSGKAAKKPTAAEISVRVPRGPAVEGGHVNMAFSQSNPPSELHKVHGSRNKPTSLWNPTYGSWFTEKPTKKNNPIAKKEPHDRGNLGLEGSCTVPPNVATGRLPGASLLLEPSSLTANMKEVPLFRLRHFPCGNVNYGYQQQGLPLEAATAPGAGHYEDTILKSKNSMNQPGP
From the text: A recombinant retrovirus was created from expression plasmid FLAG-EML4-ALKv1/pMX-iresCD8 in which cDNA for EML4-ALK fusion protein v1 was integrated, and injected into mouse lymphoid cell line BA/F3 cells. Using a magnetic bead reagent for cell separation and a purification column (anti-CD8 monoclonal antibody immobilized on magnetic beads and a MiniMACS purification column; both are products of Miltenyi Biotec Inc.), cell surface CD8-expressing cells were purified to establish EML4-ALK fusion protein v1-expressing BA/F3 cells. From the cells, EML4-ALK fusion protein v1 was purified and subjected to kinase activity evaluation. EML4-ALK fusion protein v1 was investigated for its phosphorylation activity toward a peptide substrate by using a kinase activity detection kit (HTRF KinEASE-TK; Cisbio Inc.). […] The ATP concentration used was 100 μM.

[3] = system: human non-small cell lung cancers cell line NCI-H2228 cells; test: Antitumor test (in vivo) on NCI-H2228 cells; details: oral administration, NOD/SCID mice, Student's t-test
From the text: The antitumor effects on EML4-ALK fusion protein-dependent cells can also be confirmed by use of human non-small cell lung cancers cell line NCI-H2228 cells (cells derived from EML4-ALK fusion polynucleotide-positive lung cancer patients (EML4-ALK fusion protein v3-dependent cells)) in place of the EML4-ALK fusion protein v1 expressing 3T3 cells of Test Example 3, as shown below.
3×10^6 cells of NCI-H2228 cells suspended in 50% Matrigel (Invitrogen) were inoculated subcutaneously by injection to the back of 5 weeks old male NOD/SCID mice (Charles River Japan, Inc.). After 3 weeks of the inoculation, the administration of test compounds was initiated. The test was conducted in the solvent group and test compound groups, 6 animals per group. The test compounds were each dissolved in a solvent composed of 10% 1-methyl-2-pyrrolidinone (SIGMA-ALDRICH Inc.)/90% polyethylene glycol 300 (Fluka Inc.) and administered orally at a dose of 1 mg/kg. Administrations were performed once a day for 14 days, and body weight and tumor size were measured every other day. Tumor volume was calculated using the following formula. [Tumor volume(mm^3)]=[Tumor major axis(mm)]×[tumor minor axis(mm)]^2×0.5

[4] = system: EML4-ALK fusion protein v1 expressing 3T3 cells; test: Antitumor test (in vivo) on EML4-ALK fusion protein v1 expressing 3T3 cells; details: oral 10 mg/kg once a day for 5 days, Balb/c nude mice, EML4-ALK v1 3T3 tumor; for rate of regression (tumor volume): values marked (regression)
From the text: Expression plasmid EML4-ALKv1/pMXS in which cDNA for EML4-ALK fusion protein v1 was integrated was trasfected into 3T3 fibroblast cells by the phosphate calcium method to thereby establish EML4-ALK fusion protein v1 expressing 3T3 cells. 3×10^6 cells of EML4-ALK fusion protein v1 expressing 3T3 cells suspended in PBS were inoculated subcutaneously by injection to the back of 5 weeks old male Balb/c nude mice (Charles River Japan, Inc.). After 7 days of the inoculation, the administration of test compound was initiated. The test was conducted in the solvent group and the compound group, 4 animals per group. The test compound was suspended in a solvent composed of 0.5% methylcellulose and administered orally at a dose of 10 mg/kg. Administrations were performed once a day for 5 days, and body weight and tumor size were measured every other day. Tumor volume was calculated using the following formula. [Tumor volume(mm^3)]=[Tumor major axis(mm)]×[tumor minor axis(mm)]^2×0.5
When regression of tumor volume is induced from the day of starting administration, the tumor volume on the day of starting administration and the state in which the tumor disappeared were assumed to be 0% regression and 100% regression, respectively, and the rate of regression of the test compound was calculated.

SMILES	IC50 ([1]; Mus musculus, BaF3, 48 h) [nM]	IC50 [2] [nM]	growth inhibition against NCI-H2228 cells (tumor) compared with the solvent group [3]	IC50 [1] [nM]	inhibition rate (tumor volume) [4] [%]	rate of regression (tumor volume) [4]
CCc1nc(C(N)=O)c(Nc2ccc(N3CCN(C)CC3)cc2)nc1NC1CCOCC1 [Example 545]	25	11				
CCc1nc(C(N)=O)c(Nc2ccc(N3CCC(N(C)C)C3)c(C(F)(F)F)c2)nc1N[C@H]1CC[C@H](O)CC1 (stereo partly drawn) [Example 406]	9.8	0.34				
CCc1nc(C(N)=O)c(Nc2ccc(N3CCC(N4CCN(C)CC4)CC3)c(OC)c2)nc1N[C@H]1CC[C@H](O)CC1 [Example 340]	9.5	0.37				
CCc1nc(C(N)=O)c(Nc2ccc(OC)c(N3CCN(C)CC3)c2)nc1N[C@H]1CC[C@H](O)CC1 [Example 383]	5.9	0.23				
CCc1nc(C(N)=O)c(Nc2cccc(S(C)(=O)=O)c2)nc1N[C@H]1CC[C@H](O)CC1 [Example 86]	68	17				
CCc1nc(C(N)=O)c(Nc2ccc(N3CCN(C)CC3)c(OC)c2)nc1N[C@H]1CC[C@H](O)CC1 [Example 355]	9.2	0.33				
CCc1nc(C(N)=O)c(Nc2cccc(C)c2)nc1NCCN(C)C [Compound Y, 5-{[2-(dimethylamino)ethyl]amino}-6-ethyl-3-[(3-methylphenyl)amino]pyrazine-2-carboxamide, reference compound]	> 1000	> 1000	no significant growth inhibition			
CCc1nc(C(N)=O)c(Nc2ccc(N3CCN(CC4CC4)CC3)c(C(F)(F)F)c2)nc1N[C@H]1CC[C@H](O)CC1 [Example 399]	11	0.94				
CCOc1cc(Nc2nc(N[C@H]3CC[C@H](O)CC3)c(CC)nc2C(N)=O)ccc1N1CCC(N2CCN(C)CC2)CC1 [Example 459]	8.1	0.26				
Cc1cc(Nc2nc(N[C@H]3CC[C@H](O)CC3)c(Cl)nc2C(N)=O)ccc1N1CCC(N2CCN(C)CC2)CC1 [Example 538]	7.7	2.3				
CCc1nc(C(N)=O)c(Nc2ccc(N3CCC(N4CCN(C)CC4)CC3)c(C)c2)nc1NC1CCC(O)(C(C)C)CC1 (stereo not drawn) [Example 494]		4.1		42		
CCc1nc(C(N)=O)c(Nc2ccc(N3CCN(C(C)C)CC3)c(C)c2)nc1N[C@H]1CC[C@H](O)CC1 [Example 426]	11	0.49			81	
CCc1nc(C(N)=O)c(Nc2ccc(N3CCC(N4CCN(C)CC4)CC3)cc2)nc1NC1CCOCC1 [Example 546]	23	7.8			79	
CCc1nc(C(N)=O)c(Nc2ccc3cnn(C)c3c2)nc1N[C@H]1CC[C@H](O)CC1 [Example 328]	76					
CC(C)c1nc(C(N)=O)c(Nc2ccc(N3CCN(C)CC3)cc2)nc1NC1CCOCC1 [Example 554]	14	4.5				
CCc1nc(C(N)=O)c(Nc2ccc(N3CCN(C)CC3)cc2)nc1N[C@H]1CC[C@H](O)CC1 [Example 325]	20	5.3				
CCc1nc(C(N)=O)c(Nc2ccc(N3CCN(C)CC3)c(C)c2)nc1N[C@H]1CC[C@@](C)(O)CC1 [Example 391]	6.5	0.22				
CCc1nc(C(N)=O)c(Nc2ccc(N3CCC(N4CCN(C)CC4)CC3)c(C)c2)nc1N[C@H]1CC[C@H](O)CC1 [Example 378]	6.1	0.26			92	

SMILES	IC50 ([1]; Mus musculus, BaF3, 48 h) [nM]	IC50 [2] [nM]	growth inhibition against NCI-H2228 cells (tumor) compared with the solvent group [3]	IC50 [1] [nM]	inhibition rate (tumor volume) [4] [%]	rate of regression (tumor volume) [4]
CCc1nc(C(N)=O)c(Nc2ccc(N3CCN(C)CC3)c(C)c2)nc1N[C@H]1CC[C@H](O)CC1 [Example 377]	6.9	0.24				
CCc1nc(C(N)=O)c(Nc2ccc(N3CCN(C)CC3)c(F)c2)nc1NC1CCOCC1 [Example 550]	39	11				
CCc1nc(C(N)=O)c(Nc2ccc(N3CCC(N4CCN(C)CC4)CC3)c(C(F)(F)F)c2)nc1N[C@H]1CC[C@H](O)CC1 [Example 370]	4.9	0.65			81	
CCc1nc(C(N)=O)c(Nc2ccc(N3CCC(N4CCN(C)CC4)CC3)cc2OC)nc1N[C@H]1CC[C@H](O)CC1 [Example 284]	85	8.9				
CCc1nc(C(N)=O)c(Nc2ccc(N3CCN(C)CC3)c(C(F)(F)F)c2)nc1N[C@H]1CC[C@H](O)CC1 [Example 354]	8.6	0.77				
CCc1nc(C(N)=O)c(Nc2ccc(N3CCC(N4CCN(C)CC4)CC3)c(C)c2)nc1N[C@H]1CC[C@@](C)(O)CC1 [Example 392]	6.3	0.21				28 (regression) %
CCc1nc(C(N)=O)c(Nc2ccc(N3CCC(N4CCN(C)CC4)CC3)c(C)c2)nc1NC1CCC(O)(C(C)C)CC1 (stereo not drawn) [Example 493]		2.6		19		
CC(C)c1nc(C(N)=O)c(Nc2ccc(N3CCN(C)CC3)cc2)nc1N[C@H]1CC[C@H](O)CC1 [Example 343, 5-[(trans-4-hydroxycyclohexyl)amino]-6-isopropyl-3-{[4-(4-methylpiperazin-1-yl)phenyl]amino}pyrazine-2-carboxamide]	11	2.1				
CCc1nc(C(N)=O)c(Nc2ccc(N3CCC(N4CCN(C)CC4)CC3)cc2)nc1N[C@H]1CC[C@H](O)CC1 [Example 341]	11	2.8				
COc1cc(Nc2nc(NC3CCOCC3)c(C(C)C)nc2C(N)=O)ccc1N1CCN(C)CC1 [Example 553]					63	
CC(C)c1nc(C(N)=O)c(Nc2ccc(N3CCC(N4CCN(C)CC4)CC3)c(C(F)(F)F)c2)nc1N[C@H]1CC[C@H](O)CC1 [Example 388]	4.1	0.17				
CCc1nc(C(N)=O)c(Nc2ccc(N3CCC(N4CCN(C)CC4)CC3)c(C)c2)nc1NC1CCC(O)(CC)CC1 (stereo not drawn) [Example 490]	18	3.1				
CCc1nc(C(N)=O)c(Nc2ccc(N3CCC(N4CCN(C)CC4)CC3)c(C)c2)nc1NC1CCC(O)(CC)CC1 (stereo not drawn) [Example 491]		2.8		16		
CCc1nc(C(N)=O)c(Nc2ccc(N3CCC(N4CCN(C)CC4)CC3)c(C)c2)nc1NC1CCOCC1 [Example 512]	19	1.5				
CCc1nc(C(N)=O)c(Nc2ccc(N3CCC(N4CCN(C)CC4)CC3)c(OC)c2)nc1NC1CCOCC1 [Example 547]	5.7					
CCc1nc(C(N)=O)c(Nc2ccc(N3CCC(N4CCN(C)CC4)CC3)c(C)c2)nc1N[C@H]1CC[C@](C)(O)CC1 [Example 466]	9.3	0.93				54 (regression) %
CCc1nc(C(N)=O)c(Nc2ccc(N3CCN(C4CCN(C)CC4)CC3)c(C)c2)nc1NC1CCOCC1 [Example 558]	16	2.2				37 (regression) %
